From article PMC10611581, “Directed evolution unlocks oxygen reactivity for a nicotine-degrading flavoenzyme” (Nature Chemical Biology, 2023) come the findings set out here.

In series [1] the target is T1, NicA2 (nicotine oxidoreductase) (Pseudomonas putida, UniProt F8G0P2).
T1 construct: expressed in E. coli BL21 (DE3) from pET28a-His-SUMO-nicA2, His-SUMO tag cleaved by ULP-1
T1 sequence (F8G0P2 39-482 limits assumed): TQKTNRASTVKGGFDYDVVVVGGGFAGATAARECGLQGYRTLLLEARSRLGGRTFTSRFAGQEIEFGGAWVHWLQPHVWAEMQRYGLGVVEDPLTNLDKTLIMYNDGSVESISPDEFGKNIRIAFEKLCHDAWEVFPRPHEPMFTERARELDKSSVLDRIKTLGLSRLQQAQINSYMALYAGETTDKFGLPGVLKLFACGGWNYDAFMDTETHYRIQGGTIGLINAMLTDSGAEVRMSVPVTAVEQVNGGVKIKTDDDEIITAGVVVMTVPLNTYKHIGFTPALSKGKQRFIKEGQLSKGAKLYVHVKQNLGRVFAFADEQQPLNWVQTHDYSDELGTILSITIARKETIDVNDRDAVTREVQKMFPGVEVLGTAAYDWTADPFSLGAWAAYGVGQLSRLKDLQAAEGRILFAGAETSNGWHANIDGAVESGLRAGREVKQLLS
Kind of series: bound flavin absorbance at […] nm; ThermoFAD. It is filed as binding. The following applies: co-purified bound cofactor.

Series [2] concerns the molecule itself. Kind of series: crystal structure; hanging-drop vapor diffusion at 4 °C; NicA2 v321 ligand-free and with 20 mM NMM (sodium citrate pH 5.0, 18% PEG 6000), wild type with 2.3 mM NMM (0.2 M ammonium citrate pH 7.0, 20% PEG 3350); two molecules in the asymmetric unit.

`Cc1cc2nc3c(=O)[nH]c(=O)nc-3n(C[C@H](O)[C@H](O)[C@H](O)COP(=O)(O)OP(=O)(O)OC[C@H]3O[C@@H](n4cnc5c(N)ncnc54)[C@H](O)[C@@H]3O)c2cc1C` [flavin adenine dinucleotide]: in series [1], the “bound flavin absorbance at 450 nm; ThermoFAD” value is “determined using the absorbance of bound FAD cofactor”.

B1: nicotine oxidoreductase (NicA2), wild type (enzyme, Pseudomonas putida S16, UniProt F8G0P2 39-482, looked up)
chain: TQKTNRASTVKGGFDYDVVVVGGGFAGATAARECGLQGYRTLLLEARSRLGGRTFTSRFAGQEIEFGGAWVHWLQPHVWAEMQRYGLGVVEDPLTNLDKTLIMYNDGSVESISPDEFGKNIRIAFEKLCHDAWEVFPRPHEPMFTERARELDKSSVLDRIKTLGLSRLQQAQINSYMALYAGETTDKFGLPGVLKLFACGGWNYDAFMDTETHYRIQGGTIGLINAMLTDSGAEVRMSVPVTAVEQVNGGVKIKTDDDEIITAGVVVMTVPLNTYKHIGFTPALSKGKQRFIKEGQLSKGAKLYVHVKQNLGRVFAFADEQQPLNWVQTHDYSDELGTILSITIARKETIDVNDRDAVTREVQKMFPGVEVLGTAAYDWTADPFSLGAWAAYGVGQLSRLKDLQAAEGRILFAGAETSNGWHANIDGAVESGLRAGREVKQLLS
notes: nicotine oxidoreductase NicA2 of Pseudomonas putida S16; crystallised with N-methylmyosmine (NMM); also called wild-type NicA2; WT; source: E. coli BL21 (DE3), purified (HisTrap, ULP-1 cleavage, HiTrap Q, Superdex 200)
On to B1, for which the stoichiometry N (commonly the number of molecules, sites or subunits per partner or assembly) in series [2] was 2.
